Assay results: ChEMBL document CHEMBL6074683, “Design, synthesis and investigation of biological activity and mechanism of fluoroaryl-substituted derivatives at the FL118 position 7” (Eur J Med Chem, 2025)

Columns and labels:
Format in all cases: functional, cell-based
HepG2 = experiment: Cytotoxicity against human HepG2 cells incubated for 72 hrs by MTT assay; conditions: HepG2, 72 h
A549 = experiment: Cytotoxicity against human A549 cells incubated for 72 hrs by MTT assay; conditions: A549, 72 h
HeLa = experiment: Cytotoxicity against human HeLa cells incubated for 72 hrs by MTT assay
HCT-116 = experiment: Cytotoxicity against human HCT-116 cells incubated for 72 hrs by MTT assay; conditions: HCT-116, 72 h

CC[C@@]1(O)C(=O)OCc2c1cc1n(c2=O)Cc2c-1nc1cc3c(cc1c2-c1cc(F)cc(OC)c1)OCO3
IC50 (HepG2): 48.5 nM
IC50 (A549): 15.5 nM
IC50 (HeLa): 124 nM
IC50 (HCT-116): 66.9 nM

CC[C@@]1(O)C(=O)OCc2c1cc1n(c2=O)Cc2c-1nc1cc3c(cc1c2-c1ccc(F)cc1)OCO3
IC50 (HepG2): 46.3 nM
IC50 (A549): 19.8 nM
IC50 (HeLa): 11.1 nM
IC50 (HCT-116): 32.7 nM

CC[C@@]1(O)C(=O)OCc2c1cc1n(c2=O)Cc2c-1nc1cc3c(cc1c2-c1ccc(OC)c(F)c1)OCO3
IC50 (HepG2): 172 nM
IC50 (A549): 70.2 nM
IC50 (HeLa): 24.3 nM
IC50 (HCT-116): 43.2 nM

CCOc1ccc(-c2c3c(nc4cc5c(cc24)OCO5)-c2cc4c(c(=O)n2C3)COC(=O)[C@]4(O)CC)cc1F
IC50 (HepG2): 206 nM
IC50 (A549): 352 nM
IC50 (HeLa): 42.2 nM
IC50 (HCT-116): 399 nM

CC[C@@]1(O)C(=O)OCc2c1cc1n(c2=O)Cc2c-1nc1cc3c(cc1c2-c1ccc(F)c(F)c1)OCO3
IC50 (HepG2): 49.9 nM
IC50 (A549): 9 nM
IC50 (HeLa): 39.7 nM
IC50 (HCT-116): 48.8 nM

CC[C@@]1(O)C(=O)OCc2c1cc1n(c2=O)Cc2c-1nc1cc3c(cc1c2-c1ccc(F)c(C)c1)OCO3
IC50 (HepG2): 36.7 nM
IC50 (A549): 29.4 nM
IC50 (HeLa): 36.6 nM
IC50 (HCT-116): 25.5 nM

CC[C@@]1(O)C(=O)OCc2c1cc1n(c2=O)Cc2c-1nc1cc3c(cc1c2-c1cccc(OC(F)(F)F)c1)OCO3
IC50 (HepG2): 16.8 nM
IC50 (A549): 26.4 nM
IC50 (HeLa): 12.8 nM
IC50 (HCT-116): 14.6 nM

CC[C@@]1(O)C(=O)OCc2c1cc1n(c2=O)Cc2c-1nc1cc3c(cc1c2-c1cccc(C(F)(F)F)c1)OCO3
IC50 (HepG2): 35 nM
IC50 (A549): 82.9 nM
IC50 (HeLa): 20.2 nM
IC50 (HCT-116): 73.6 nM
